Measurements reported in patent US10968214B2, “KRas G12C inhibitors” (Eli Lilly and Company, priority 2018, dated 2021).
Read-outs that look alike come from different tables or passages of the source.

Legend:
[1] = test system: H358; test: 3D H358 Cell Proliferation Assay; assay type: cell-based; conditions: Homo sapiens, NCI-H358; H358, 3D, 96 hr; read-out: relative IC50
Procedure: Human lung cancer cells, H358, (ATCC CRL-5807) are used to evaluate compound inhibition in a 3D proliferation assay. Signal reflecting cell proliferation is detected with the CellTiterGlo® 3D reagent (Promega G9683). The cells are grown in RPMI 1640 (GIBCO®) supplemented with 10% heat inactivated FBS and 0.1 mg/ml penicillin/streptomycin. H358 cells are cultured in the growth phase and five thousand cells per well are plated in a black well clear round bottom 96-well ultra-low attachment surface plate (Corning® Cat 4520) with 80 μl/well of culture media. Cells are incubated overnight at 37° C. in a humidity chamber. 20 μl/well of serially diluted test compound is added to the plate which is then incubated for 96 hr. Plates are brought to RT and an equal volume of RT CellTiterGlo® 3D reagent is added. Plates are shaken at 750 RPM for 10 min at RT After a 1 hr incubation at RT to stabilize the signal, the luminescent signal is measured on the EnVision™ plate reader. The signal is converted to percent inhibition using the following equation: % Inhibition=100−[(Test Compound Signal−Median Minimum Signal)/(Median Maximum Signal−Median Minimum Signal)×100]. The Max Signal is a control well without inhibitor.

[2] = test system: Kyse-410; test: CellTiterGlo Cell Proliferation Assay, Kyse-410; assay type: cell-based; conditions: Homo sapiens, KRas G12C, Esophagus, 96 hr
Procedure: A panel of tumor cell lines harboring KRas G12C or other KRas mutations are collected (Table 6). All cell lines are from ATCC or other sources indicated.
Typically cells are cultured in RPMI1640 or Dulbecco's modified Eagle's medium (DMEM, GIBCO) supplemented with 10% FBS (GIBCO, Invitrogen). For 2D culture cells (4×10^3/well) maintained in growth medium described above, are plated onto 96 well tissue culture plates Corning® Cat. 3603) a day before the treatment. For 3D culture 8000 cells/well are seeded onto 96 well ultra-low attachment tissue culture plates (Corning, #3474). The cells are treated compound for 96 hr, and then are analyzed for viability using the CellTiterGlo® Luminescent Cell Viability Assay® (Promega #G7572 for 2D and Promega #G9683 for 3D cultures) according to manufacturer's instructions and an EnVision™ plate reader. Nonlinear regression and sigmoidal dose-response curves are used to calculate the half maximal inhibitory concentration (IC50) with GraphPad Prism 4® software.

[3] = test system: MIA Paca-2; test: Combination 4 day growth assay (Cell TiterGlo), MIA Paca-2; assay type: cell-based; conditions: Homo sapiens, MIA PaCa-2, 96 h, single treatment, read-out: Absolute IC50
Procedure: Cell lines for this study are obtained from ATCC and grown under ATCC recommended conditions, except for LXFA-983L, which is obtained from Oncotest/Charles Rivers Laboratories, Wilmington, Mass. and D122-96, which is obtained from L. Eisenbach (Weizman Institute of Science, Rehovot, Israel)—both grown under recommended conditions. […] The proliferation assay is performed as a 4 day growth assay using Cell TiterGlo® as the readout. Briefly, cells are plated in 96-well cell culture plates and allowed to adhere overnight at 37° C. The following day, cells are treated with compounds, either single treatments or combination treatments. First, the testing compounds are serially diluted in DMSO, followed by dilution into media as a 5× concentration with 1% DMSO, and finally added to cells in media to dilute to 1×. The cells are incubated at 37° C. for 4 more days. At the end of the incubation period, Cell TiterGlo® reagent is mixed and added to the wells. After 10 minutes, the luminescence is read by a Perkin Elmer Envision instrument. Absolute IC50 values generated by a 4-parameter logistics model for the single and combination treatments are generated, followed by combination indexes for each combination treatment and cell line. The combination IC50 values are adjusted based on the total concentration of each compound when added together. […] The combination index (CI) measures the degree to which the potency of a combination therapy differs from the expected-if-additive potency and is based on the Loewe definition of additivity.
[formula] Where • CAy and CBy are the concentrations of therapies A and B that produce an effect, y, when given in combination • ICAy and ICBy are the concentrations of A and B that produce an effect, y, when given individually The biological interpretation of the combination index is as follows: synergistic if the combination index <0.5, additive if the combination index is between 0.5 and 2, and antagonistic if the combination index is >2.

[4] = test system: SW1463 xenograft; test: Anti-tumor growth activity, SW1463 colorectal xenograft; assay type: in vivo; conditions: for Tumor Growth Inhibition (%) or Regression (−%): 28 Day, negative = regression

IC50 [1]: < 0.0116 µM
IC50 [3]: 0.022 µM
SMILES: C=CC(=O)N1CCN(c2ncnc3c(F)c(-c4ccc(F)c5sc(N)nc45)c(Cl)cc23)CC1 [Example 1, 1-{4-[7-(2-Amino-7-fluoro-1,3-benzothiazol-4-yl)-6-chloro-8-fluoroquinazolin-4-yl]piperazin-1-yl}prop-2-en-1-one]
IC50 ([2]; read-out: IC50 (μM) in 2 D cell proliferation): 2.94 µM
IC50 ([2]; read-out: IC50 (μM) in 3 D spheroid cell proliferation): 0.471 µM
Tumor Growth Inhibition (%) or Regression (−%) ([4]; 15 mg/kg BID): −27%
Tumor Growth Inhibition (%) or Regression (−%) ([4]; 30 mg/kg BID): −47.9%
Tumor Growth Inhibition (%) or Regression (−%) ([4]; 30 mg/kg QD): −13.9%
In Vivo Anti-Tumor Activities ([4]; Example 1 30 mg/kg QDx28): −21.4
